{"source": "paper PMC9127750", "about": "“Structure-based design of CDC42 effector interaction inhibitors for the treatment of cancer” (Cell reports, 2022)", "system": "WM3248 melanoma cells, 486 antibodies", "assay": "Reverse phase protein arrays (RPPA)", "format": "cell-based, Human", "text": "Pellets were snap frozen in liquid nitrogen and shipped to MD Anderson Cancer Center core RPPA facility for RPPA analysis (Table S5). Three biological replicates for each sample were generated.\nNomenclatures on the RPPA heatmaps: name_of_antibody.species_of_antibody.status_of_antibody. V - antibody validated; C - validation of antibody in progress; Q - antibody nonspecific; E – under evaluation; antibodies raised in M - mouse, G - goat, R - rabbit, or T - rat.", "note": "“And” between values parts separate entries of the source, which are not always exact repeats. Identical values can stand only once."}
{"smiles": "CN(C)c1cccc(Nc2cc(-c3ccccc3)nc(C3CCNCC3)n2)c1", "note": "[ARN22089, N1,N1-dimethyl-N3-(6-phenyl-2-(piperidin-4-yl)pyrimidin-4-yl)benzene-1,3-diamine]", "values": [{"measurement": "RPPA DNMT1.R.V", "setting": "20 uM, single samples", "result": "0.983 and 0.756 and 0.985"}, {"measurement": "RPPA DRP1.R.V", "setting": "20 uM, single samples", "result": 0.965}, {"measurement": "RPPA DUSP6.R.C", "setting": "20 uM, single samples", "result": "1.060 and 1.859 and 1.429"}, {"measurement": "RPPA DYRK1B.R.C", "setting": "20 uM, single samples", "result": "1.009 and 1.052 and 0.953"}, {"measurement": "RPPA Dvl3.R.V", "setting": "20 uM, single samples", "result": "0.950 and 1.123"}, {"measurement": "RPPA E2F1.R.V", "setting": "20 uM, single samples", "result": "1.419 and 1.315 and 0.981"}, {"measurement": "RPPA E.Cadherin.R.V", "setting": "20 uM, single samples", "result": "0.828 and 1.005"}, {"measurement": "RPPA EGFR.R.V", "setting": "20 uM, single samples", "result": "1.031 and 1.102 and 1.106"}, {"measurement": "RPPA EGFR_pY1068.R.C", "setting": "20 uM, single samples", "result": "0.990 and 0.986"}, {"measurement": "RPPA EGFR_pY1173.R.V", "setting": "20 uM, single samples", "result": "1.027 and 1.077 and 1.112"}, {"measurement": "RPPA EMA.M.C", "setting": "20 uM, single samples", "result": "0.905 and 0.939 and 0.944"}, {"measurement": "RPPA ENY2.M.C", "setting": "20 uM, single samples", "result": "0.965 and 0.851 and 0.977"}, {"measurement": "RPPA ER.a.R.V", "setting": "20 uM, single samples", "result": "0.767 and 0.993 and 1.203"}, {"measurement": "RPPA ERCC1.R.C", "setting": "20 uM, single samples", "result": "1.137 and 1.100 and 0.957"}, {"measurement": "RPPA ERCC5.R.C", "setting": "20 uM, single samples", "result": "1.157 and 0.901 and 0.984"}, {"measurement": "RPPA ERRalpha.R.V", "setting": "20 uM, single samples", "result": "0.962 and 1.097 and 0.968"}, {"measurement": "RPPA EVI1.R.V", "setting": "20 uM, single samples", "result": "1.169 and 1.023 and 0.918"}, {"measurement": "RPPA Elk1_pS383.R.C", "setting": "20 uM, single samples", "result": "1.006 and 1.163 and 1.131"}, {"measurement": "RPPA Enolase.1.R.V", "setting": "20 uM, single samples", "result": "1.058 and 0.770 and 0.988"}, {"measurement": "RPPA Enolase.2.R.V", "setting": "20 uM, single samples", "result": "1.052 and 0.967 and 0.953"}, {"measurement": "RPPA EphA2.R.V", "setting": "20 uM, single samples", "result": "0.650 and 0.867 and 0.932"}, {"measurement": "RPPA EphA2_pY588.R.C", "setting": "20 uM, single samples", "result": "1.102 and 1.013 and 0.933"}, {"measurement": "RPPA Erk5.R.V", "setting": "20 uM, single samples", "result": "0.870 and 0.876"}, {"measurement": "RPPA Ets.1.R.V", "setting": "20 uM, single samples", "result": "1.428 and 0.989"}, {"measurement": "RPPA FABP5.R.C", "setting": "20 uM, single samples", "result": "1.054 and 0.987 and 1.035"}, {"measurement": "RPPA FAK.R.C", "setting": "20 uM, single samples", "result": "0.799 and 1.003 and 1.205"}, {"measurement": "RPPA FAK_pY397.R.V", "setting": "20 uM, single samples", "result": "0.986 and 1.046 and 0.989"}, {"measurement": "RPPA FANCD2.R.V", "setting": "20 uM, single samples", "result": "0.998 and 0.872 and 0.901"}, {"measurement": "RPPA FASN.R.V", "setting": "20 uM, single samples", "result": "1.033 and 0.807 and 0.695"}, {"measurement": "RPPA FGF.basic.R.C", "setting": "20 uM, single samples", "result": "0.959 and 0.928"}, {"measurement": "RPPA FN14.R.C", "setting": "20 uM, single samples", "result": "0.830 and 1.031 and 1.337"}, {"measurement": "RPPA FOXM1.R.V", "setting": "20 uM, single samples", "result": "1.401 and 0.852 and 0.917"}, {"measurement": "RPPA FOXO3.R.V", "setting": "20 uM, single samples", "result": "1.030 and 0.990"}, {"measurement": "RPPA FRS2.alpha_pY196.R.V", "setting": "20 uM, single samples", "result": "0.974 and 1.050 and 1.002"}, {"measurement": "RPPA FTO.R.V", "setting": "20 uM, single samples", "result": "1.174 and 0.828 and 0.929"}, {"measurement": "RPPA Fibronectin.R.V", "setting": "20 uM, single samples", "result": "0.643 and 1.194 and 1.130"}, {"measurement": "RPPA FoxO3a_pS318_S321.R.C", "setting": "20 uM, single samples", "result": "1.008 and 0.941"}, {"measurement": "RPPA G6PD.R.V", "setting": "20 uM, single samples", "result": "0.989 and 0.985 and 0.975"}, {"measurement": "RPPA GATA3.M.V", "setting": "20 uM, single samples", "result": "1.212 and 0.968"}, {"measurement": "RPPA GATA6.R.V", "setting": "20 uM, single samples", "result": "1.033 and 0.956 and 0.952"}, {"measurement": "RPPA GCLC.R.C", "setting": "20 uM, single samples", "result": "0.868 and 1.160"}, {"measurement": "RPPA GCLM.R.V", "setting": "20 uM, single samples", "result": "1.077 and 0.945 and 0.973"}, {"measurement": "RPPA GCN5L2.R.V", "setting": "20 uM, single samples", "result": "0.869 and 0.957"}, {"measurement": "RPPA GGPS1.M.V", "setting": "20 uM, single samples", "result": "1.005 and 0.891 and 0.957"}, {"measurement": "RPPA GRB2.R.V", "setting": "20 uM, single samples", "result": "0.953 and 0.884 and 1.030"}, {"measurement": "RPPA GRB7.R.V", "setting": "20 uM, single samples", "result": "0.848 and 1.110 and 1.171"}, {"measurement": "RPPA GSK.3B.R.C", "setting": "20 uM, single samples", "result": "0.916 and 0.817 and 0.970"}, {"measurement": "RPPA GSK.3a.b.M.V", "setting": "20 uM, single samples", "result": "1.009 and 0.884 and 0.977"}, {"measurement": "RPPA GSK.3a.b_pS21_S9.R.V", "setting": "20 uM, single samples", "result": "0.956 and 1.173 and 1.028"}, {"measurement": "RPPA Gab2.R.V", "setting": "20 uM, single samples", "result": "1.465 and 0.881 and 0.921"}, {"measurement": "RPPA Gli1.R.C", "setting": "20 uM, single samples", "result": "0.959 and 0.928 and 0.972"}, {"measurement": "RPPA Gli3.R.C", "setting": "20 uM, single samples", "result": 1.201}, {"measurement": "RPPA Glucocorticoid.Receptor.R.V", "setting": "20 uM, single samples", "result": "1.195 and 1.220 and 0.975"}, {"measurement": "RPPA Glutamate.D1.2.R.V", "setting": "20 uM, single samples", "result": "1.284 and 0.987 and 1.014"}, {"measurement": "RPPA Glutaminase.R.C", "setting": "20 uM, single samples", "result": "1.004 and 0.974 and 1.096"}, {"measurement": "RPPA Granzyme.B.R.V", "setting": "20 uM, single samples", "result": "1.019 and 1.152 and 1.098"}, {"measurement": "RPPA Grp75.R.C", "setting": "20 uM, single samples", "result": "1.682 and 0.883 and 0.952"}, {"measurement": "RPPA Gys.R.V", "setting": "20 uM, single samples", "result": "0.810 and 1.025 and 1.174"}, {"measurement": "RPPA Gys_pS641.R.V", "setting": "20 uM, single samples", "result": "0.658 and 0.955"}, {"measurement": "RPPA H2AX_pS140.M.C", "setting": "20 uM, single samples", "result": "1.144 and 1.344 and 0.957"}, {"measurement": "RPPA HER2.M.V", "setting": "20 uM, single samples", "result": "1.022 and 0.960"}, {"measurement": "RPPA HER2_pY1248.R.V", "setting": "20 uM, single samples", "result": "1.010 and 1.097"}, {"measurement": "RPPA HER3.R.V", "setting": "20 uM, single samples", "result": "1.052 and 0.876 and 0.821"}, {"measurement": "RPPA HER3_pY1289.R.C", "setting": "20 uM, single samples", "result": "1.023 and 0.933"}, {"measurement": "RPPA HES1.R.V", "setting": "20 uM, single samples", "result": "0.979 and 1.109 and 1.059"}, {"measurement": "RPPA Heregulin.R.V", "setting": "20 uM, single samples", "result": "0.854 and 1.034 and 1.150"}, {"measurement": "RPPA eEF2.R.C", "setting": "20 uM, single samples", "result": "1.353 and 0.930 and 0.976"}, {"measurement": "RPPA eEF2K.R.V", "setting": "20 uM, single samples", "result": "1.420 and 1.250 and 1.117"}, {"measurement": "RPPA eIF4E.R.V", "setting": "20 uM, single samples", "result": "0.957 and 1.295 and 1.239"}, {"measurement": "RPPA eIF4E_pS209.R.V", "setting": "20 uM, single samples", "result": "0.903 and 1.310"}, {"measurement": "RPPA eIF4G.R.C", "setting": "20 uM, single samples", "result": "1.450 and 0.906 and 0.991"}, {"measurement": "DNMT1.R.V Norm_5 Average", "setting": "5, average, normalized to 0", "result": 1.028}, {"measurement": "DRP1.R.V Norm_5 Average", "setting": "5, average, normalized to 0", "result": 1.024}, {"measurement": "DUSP4.R.V Norm_5 Average", "setting": "5, average, normalized to 0", "result": 1.106}, {"measurement": "DUSP6.R.C Norm_5 Average", "setting": "5, average, normalized to 0", "result": 1.186}, {"measurement": "DYRK1B.R.C Norm_5 Average", "setting": "5, average, normalized to 0", "result": 0.920}, {"measurement": "Dvl3.R.V Norm_5 Average", "setting": "5, average, normalized to 0", "result": 0.989}, {"measurement": "E2F1.R.V Norm_5 Average", "setting": "5, average, normalized to 0", "result": 0.971}, {"measurement": "E.Cadherin.R.V Norm_5 Average", "setting": "5, average, normalized to 0", "result": 0.851}, {"measurement": "EGFR.R.V Norm_5 Average", "setting": "5, average, normalized to 0", "result": 1.030}, {"measurement": "EGFR_pY1068.R.C Norm_5 Average", "setting": "5, average, normalized to 0", "result": 0.934}, {"measurement": "EGFR_pY1173.R.V Norm_5 Average", "setting": "5, average, normalized to 0", "result": 1.022}]}
